Where two headings read alike, the source gives them in different places. Blank lines part the entries; values can stand above or below the molecule they belong to.
Legend:
[1] = cited from earlier work
[2] = tested on: isolated hairless mouse skin; experiment: Skin permeation rate, flow-through diffusion cells; assay type: in vitro ADME; conditions: for Flux / Lag time: n = 3
Protocol: Skin permeation rates of various zolmitriptan/enhancer formulations were determined using flow through diffusion cells. Permeation experiments were done on isolated hairless mouse skin. A system comprising a multi channel peristaltic pump, a fraction collector, a circulating water bath and flow-through diffusion cells was used. Each flow-through cell had two arms, which allowed the receiver cell medium pumped to a fraction collector. The diffusion cell temperature was maintained at 37° C. by circulating water through the outer part of jacketed receiver cell. The surface area of receiver cell opening as 2 cm^2, and its volume was 5.5 ml Skin was excised from hairless mouse that was sacrificed with diethyl ether. Subcutaneous fat was removed with scissors and scalpel. Each of the flow-through diffusion cell components was connected via silicone rubber tubing with an internal diameter of 0.015 inches. The receiver cell was filled with a pH 6 buffer solution and the media stirred by Teflon-coated magnetic bar. The transdermal device was placed on the stratum corneum and the excised skin was mounted onto each receiver cell. And O-ring and cell top was placed on the top of each skin. These components are then clamped. The amount of drug permeated across the skin was calculated from the cumulative release. The samples were collected every 4 hours for 24 hours and assayed by HPLC. This method was used to measure skin permeation rates referred to as transdermal flux or flux in the examples. Zolmitriptan was analyzed by an HPLC system (Shimadzu Scientific Instruments, MD), consisting of a UV detector (SPD-10A), reversed-phase C8 column, a pump (LC-10AD), and an automatic injector (SIL-10A). The method had been previously described (Vyas et. al., 2005). Briefly, the wavelength of the UV detector was 229 nm, the column temperature was maintained at 30° C., the flow rate was 1 ml/min and injection volume was 10 μl. The mobile phase used consisted of acetonitrile/phosphate buffer pH 7.5 (15/85).

[3] = Solubility of zolmitriptan in pressure sensitive adhesive matrixes; assay type: physicochemical; conditions: silicone and PIB adhesive matrixes
[4] = Physical observation of patches by eye or microscope; assay type: physicochemical
Description: Permeation is increased for a given concentration of triptan if the triptan is in solution in the matrix. The patches of Table 9 were stored at the room temperature for the designated period of time then observed by eye or/and a microscope. No crystals or white spots have been observed, and the patches are clear. […] This function has not previously been known for this class of compounds.

[5] = cited from earlier work; remark: listed apart in the source
[6] = acrylic adhesive matrix without functional group, zolmitriptan 4 wt%
[7] = adhesive matrix 87-2287 (hydroxyl functional group), zolmitriptan 4 wt%
[8] = adhesive matrix 87-2510 (hydroxyl functional group), zolmitriptan 4 wt%
[9] = adhesive matrix 87-2516 (hydroxyl functional group), zolmitriptan 4 wt%
[10] = drug concentration 4 wt% in 87-2510 matrix
[11] = drug concentration 5 wt% in 87-2510 matrix
[12] = drug concentration 7.5 wt% in 87-2510 matrix
[13] = drug concentration 10 wt% in 87-2510 matrix
[14] = matrix thickness 25 μm, 4% drug loading, 87-2510
[15] = matrix thickness 60 μm, 4% drug loading, 87-2510
[16] = matrix thickness 95 μm, 4% drug loading, 87-2510
[17] = matrix thickness 130 μm, 4% drug loading, 87-2510
[18] = matrix thickness 165 μm, 4% drug loading, 87-2510

Compound: CN(C)CCc1c[nH]c2ccc(CS(=O)(=O)N3CCCC3)cc12 [Almotriptan]
bioavailable amount after oral ingestion [1]: 69%

Compound: CN[C@@H]1CCc2[nH]c3ccc(C(N)=O)cc3c2C1 [Frovatriptan]
bioavailable amount after oral ingestion ([1]; in females): 30%
bioavailable amount after oral ingestion ([1]; in males): 24%

Flux [2, 6]: 6.16 μg/cm^2hr
Lag time [2, 6]: 10.7 h
Flux [2, 7]: 6.5 μg/cm^2hr
Lag time [2, 7]: 13.0 h
Flux [2, 8]: 15.6 μg/cm^2hr
Lag time [2, 8]: 9.3 h
Flux [2, 9]: 14.4 μg/cm^2hr
Lag time [2, 9]: 11.8 h
Flux ([2]; adhesive matrix with carboxyl functional group, zolmitriptan 4 wt%): 0.22 μg/cm^2hr
Flux [2, 10]: 13.5 μg/cm^2hr
Lag time [2, 10]: 8.2 h
Flux [2, 11]: 14.8 μg/cm^2hr
Lag time [2, 11]: 8.5 h
Flux [2, 12]: 15.8 μg/cm^2hr
Lag time [2, 12]: 8.4 h
Flux [2, 13]: 18.3 μg/cm^2hr
Lag time [2, 13]: 9.0 h
change of flux with drug loading ([2]; drug loading in 87-2510 matrix increased from 4% to 10%): did not change significantly
Flux [2, 14]: 1.2 μg/cm^2hr
Lag time [2, 14]: 9.0 h
Flux [2, 15]: 6.1 μg/cm^2hr
Lag time [2, 15]: 5.5 h
Flux [2, 16]: 11.7 μg/cm^2hr
Lag time [2, 16]: 5.2 h
Flux [2, 17]: 14.1 μg/cm^2hr
Lag time [2, 17]: 7.0 h
Flux [2, 18]: 13.0 μg/cm^2hr
Lag time [2, 18]: 7.4 h
solubility in adhesive matrix [3]: inadequate
patch appearance ([4]; 4% drug load in 87-2510 matrix): clear
patch appearance ([4]; 5% or more drug load in 87-2510 matrix): milky
Compound: CN(C)CCc1c[nH]c2ccc(C[C@H]3COC(=O)N3)cc12 [Zolmitriptan]
bioavailable amount after oral ingestion [1]: 40%
pKa [5]: 9.64
solubility ([5]; in water and methanol): soluble

Compound: CNS(=O)(=O)Cc1ccc2[nH]cc(CCN(C)C)c2c1 [Sumatriptan]
bioavailable amount after oral ingestion [1]: 14%

Compound: CN1CCC[C@@H]1Cc1c[nH]c2ccc(CCS(=O)(=O)c3ccccc3)cc12 [Eletriptan]
bioavailable amount after oral ingestion [1]: 50%

Compound: CN(C)CCc1c[nH]c2ccc(Cn3cncn3)cc12 [Rizatriptan]
bioavailable amount after oral ingestion [1]: 47%

Compound: CNS(=O)(=O)CCc1ccc2[nH]cc(C3CCN(C)CC3)c2c1 [Naratriptan]
bioavailable amount after oral ingestion ([1]; in females): 74%
bioavailable amount after oral ingestion ([1]; in males): 63%

Reference: patent US20100209484A1, “Transdermal Triptan Delivery System” (priority 2009, published 2010)
